Source: PubChem BioAssay (NCI)
“And” between values parts separate entries of the source, which are not always exact repeats. Equal entries are not always repeated.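 48-hour exposure; five concentrations; linearly interpolated endpoints. GI50 is the concentration that inhibits growth by half. TGI marks complete inhibition of growth.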

What was measured:
Experiment in all cases: NCI tumour cell line growth inhibition, 48 h
HOP-62 NSCLC = system: HOP-62 NSCLC
K-562 leukemia = system: K-562 leukemia
NCI/ADR-RES ovarian = system: NCI/ADR-RES ovarian
PC-3 prostate = system: PC-3 prostate
RXF 393 renal = system: RXF 393 renal
SF-295 CNS = system: SF-295 CNS
SK-OV-3 ovarian = system: SK-OV-3 ovarian
SR leukemia = system: SR leukemia
TK-10 renal = system: TK-10 renal
UACC-257 melanoma = system: UACC-257 melanoma

Compound	GI50 (HOP-62 NSCLC)	TGI (HOP-62 NSCLC)	GI50 (K-562 leukemia)	TGI (K-562 leukemia)	GI50 (NCI/ADR-RES ovarian)	TGI (NCI/ADR-RES ovarian)	GI50 (PC-3 prostate)	TGI (PC-3 prostate)	GI50 (RXF 393 renal)	TGI (RXF 393 renal)	GI50 (SF-295 CNS)	TGI (SF-295 CNS)	GI50 (SK-OV-3 ovarian)	TGI (SK-OV-3 ovarian)	GI50 (SR leukemia)	TGI (SR leukemia)	GI50 (TK-10 renal)	TGI (TK-10 renal)	GI50 (UACC-257 melanoma)	TGI (UACC-257 melanoma)
Clc1ccc(N2CCC(N3CCCC3)CC2)cc1-c1nc2ccccc2[nH]1	19.8 µM	40.1 µM	17 µM	44.5 µM	29.4 µM	> 100 µM	30.9 µM	> 100 µM	12.9 µM	26.8 µM	17.4 µM	36.2 µM	24.5 µM	> 67.9 µM	20.1 µM	58.7 µM	20.7 µM	42.2 µM	17 µM	32.9 µM
N#C/C(=C\c1cccc2cnccc12)N1N=NC2C=CC=CC21 (centres undefined)	2.95 µM	46.1 µM	2.85 µM	> 100 µM	3.53 µM	> 100 µM	2.76 µM	> 100 µM	2.35 µM	6.97 µM	32.4 µM	> 100 µM	2.08 µM	25.9 µM	2.53 µM	> 100 µM	3.98 µM	26.3 µM	4.54 µM	> 100 µM
CCN(CC)CCCNc1[nH]ncc2c(C)c3nc4ccccc4c3cc12	1.08 µM	2.58 µM and 13.3 µM	0.347 µM and 0.372 µM	1.79 µM and 9.54 µM	56.1 µM	200 µM	0.498 µM	2.11 µM and 4.55 µM	0.878 µM	2.25 µM and 5.78 µM	1.3 µM	5.27 µM and 11.8 µM	1.31 µM	2.75 µM and 12.6 µM	–	1.12 µM	2.83 µM	12.4 µM and 18.1 µM	1.4 µM	7.05 µM and 6.14 µM
O=C1N[C@H]2[C@H](O)[C@H](O)[C@@H](O)[C@H](O)[C@@H]2c2cc3c(c(O)c21)OCO3	0.246 µM and 0.0935 µM	0.93 µM and 0.532 µM and 0.182 µM	0.216 µM and 0.214 µM	–	0.0241 µM	0.189 µM and 0.523 µM	0.0381 µM and 0.0661 µM	0.787 µM and 0.48 µM	0.148 µM and 0.423 µM	–	0.346 µM and 0.495 µM	3.51 µM and 0.352 µM	0.3 µM and 0.33 µM	–	0.0248 µM	0.511 µM and 3.31 µM	0.0561 µM	3.55 µM and 1.69 µM	0.314 µM and 0.339 µM	2.4 µM and 0.334 µM
Oc1ccccc1C=Nc1ccccc1N=Cc1ccccc1O.[Cu+2]	2.99 µM	11.7 µM	4.44 µM	> 100 µM	2.25 µM	8.38 µM	3.49 µM	16.2 µM	13.2 µM	26.6 µM	5.91 µM	19.9 µM	5.23 µM	18.3 µM	13.2 µM	> 100 µM	10.5 µM	23.8 µM	4.08 µM	15.6 µM
CCOC(=O)c1nc2cc(C(F)(F)F)ccc2[n+]([O-])c1C	> 100 µM	> 100 µM	> 100 µM	> 100 µM	> 100 µM	> 100 µM	> 100 µM	> 100 µM	33.9 µM	> 100 µM	> 100 µM	> 100 µM	> 100 µM	> 100 µM	> 100 µM	> 100 µM	> 100 µM	> 100 µM	> 100 µM	> 100 µM
CN1CCN(c2ccc(C(=O)Nc3cccc(C#Cc4cccc5[nH]nc(N)c45)c3)cc2C(F)(F)F)CC1	0.792 µM	2.19 µM	0.0235 µM	0.717 µM	0.99 µM	2.82 µM	0.953 µM	7.92 µM	0.799 µM	2.31 µM	0.654 µM	1.39 µM	1.62 µM	5.34 µM	1.06 µM	5.34 µM	1.1 µM	3.24 µM	1.93 µM	4.53 µM
COC(=O)[C@@H](OC)[C@@H]1Cc2cc3cc(OC4CC(OC5CC(O)C(O)C(C)O5)C(O)C(C)O4)c(C)c(O)c3c(O)c2C(=O)[C@H]1OC1CC(OC2CC(OC3CC(C)(O)C(O)C(C)O3)C(O)C(C)O2)C(O)C(C)O1 (some centres undefined)	0.0312 µM	1.8 µM	0.0407 µM	> 16.5 µM	0.688 µM	> 16.5 µM	0.0429 µM	0.188 µM	0.0263 µM	0.0623 µM	0.0357 µM	> 5.45 µM	0.0811 µM	> 16.5 µM	0.0103 µM	> 16.5 µM	0.0438 µM	> 16.5 µM	0.0507 µM	0.497 µM
Cn1c2ccccc2c2nnc(NNCc3ccccn3)nc21	0.324 µM	4.64 µM	0.363 µM	13.7 µM	0.276 µM	3.22 µM	0.594 µM	16.5 µM	0.407 µM	3.36 µM	0.397 µM	12.4 µM	0.387 µM	7.22 µM	0.311 µM	18.7 µM	0.614 µM	14.3 µM	0.641 µM	11.1 µM
Cc1cc2c(cc1C)[n+](Cc1ccc3ccccc3n1)cn2Cc1ccc2ccccc2n1	1.27 µM	3.13 µM	0.527 µM	3 µM	16.7 µM	50.9 µM	0.948 µM	2.98 µM	1.17 µM	2.45 µM	1.12 µM	2.63 µM	1.69 µM	4.13 µM	1.12 µM	3.21 µM	1.38 µM	2.74 µM	1.23 µM	3.18 µM
CN(C)c1ccc(/C=N/NC(=O)c2cccc3ccccc23)c(Cl)c1	4.18 µM	33.4 µM	0.398 µM	> 100 µM	1.02 µM	> 100 µM	2.24 µM	> 100 µM	1.31 µM	10.8 µM	0.588 µM	9.96 µM	1.67 µM	25.2 µM	0.36 µM	> 100 µM	5 µM	39.3 µM	1.07 µM	97.5 µM
C#C/C=C/CC1OC(C(Br)CC)CC(Br)C2CC1O2 (centres undefined)	–	> 100 µM	–	> 100 µM	–	> 100 µM	–	> 100 µM	–	> 100 µM	–	> 100 µM	–	> 100 µM	–	> 100 µM	–	> 100 µM	–	> 100 µM
Cc1cc2c(=O)[nH]c(N)nc2nc1C	–	> 100 µM	–	> 100 µM	–	> 100 µM	–	> 100 µM	–	> 100 µM	–	> 100 µM	–	> 100 µM	–	> 100 µM	–	> 100 µM	–	> 100 µM
C[C@@](O)(/C=C/[C@H]1CC=CC(=O)O1)[C@@H](C[C@@H](O)\C=C/C=C\C=C\CO)OP(=O)(O)O	10.1 µM	29.5 µM and 12.1 µM	1.39 µM	363 µM and 84.6 µM	–	143 µM	–	12.4 µM	–	23.8 µM and 13 µM	–	13.4 µM	–	31.4 µM	–	41.6 µM	–	46.6 µM	7.2 µM	17.6 µM and 14.6 µM
